Reference: ChEMBL document CHEMBL3991601, “The target landscape of clinical kinase drugs” (Science, 2017)
Active and inactive are the calls of the source. For most assays here, no stated cut-off is given here; in the data, actives have a measured Kd and inactives only a lower limit.

Legend:
[1] = biological target: Tyrosine-protein kinase CSK (Homo sapiens, UniProt P41240)
[2] = biological target: T1, Mitogen-activated protein kinase 15 (Homo sapiens, UniProt Q8TD08)
T1 sequence (Q8TD08 whole entry): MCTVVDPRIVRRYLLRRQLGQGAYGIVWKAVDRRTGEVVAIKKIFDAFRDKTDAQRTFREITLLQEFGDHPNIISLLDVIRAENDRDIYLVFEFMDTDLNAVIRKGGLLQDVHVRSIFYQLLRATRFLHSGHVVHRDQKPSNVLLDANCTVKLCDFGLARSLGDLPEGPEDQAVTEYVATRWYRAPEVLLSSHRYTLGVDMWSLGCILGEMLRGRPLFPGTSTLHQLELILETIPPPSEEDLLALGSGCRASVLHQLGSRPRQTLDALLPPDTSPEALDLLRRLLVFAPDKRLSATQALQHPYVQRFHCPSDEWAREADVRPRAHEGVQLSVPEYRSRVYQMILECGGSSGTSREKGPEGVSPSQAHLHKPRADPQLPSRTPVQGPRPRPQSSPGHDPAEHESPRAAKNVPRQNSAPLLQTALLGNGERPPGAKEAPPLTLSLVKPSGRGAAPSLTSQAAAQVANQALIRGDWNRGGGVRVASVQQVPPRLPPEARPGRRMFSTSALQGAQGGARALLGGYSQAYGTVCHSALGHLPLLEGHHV

[3] = biological target: S-adenosylmethionine synthase isoform type-2 (Homo sapiens, UniProt P31153)
[4] = biological target: T2, NUAK family SNF1-like kinase 2 (Homo sapiens, UniProt Q9H093)
T2 sequence (Q9H093 whole entry): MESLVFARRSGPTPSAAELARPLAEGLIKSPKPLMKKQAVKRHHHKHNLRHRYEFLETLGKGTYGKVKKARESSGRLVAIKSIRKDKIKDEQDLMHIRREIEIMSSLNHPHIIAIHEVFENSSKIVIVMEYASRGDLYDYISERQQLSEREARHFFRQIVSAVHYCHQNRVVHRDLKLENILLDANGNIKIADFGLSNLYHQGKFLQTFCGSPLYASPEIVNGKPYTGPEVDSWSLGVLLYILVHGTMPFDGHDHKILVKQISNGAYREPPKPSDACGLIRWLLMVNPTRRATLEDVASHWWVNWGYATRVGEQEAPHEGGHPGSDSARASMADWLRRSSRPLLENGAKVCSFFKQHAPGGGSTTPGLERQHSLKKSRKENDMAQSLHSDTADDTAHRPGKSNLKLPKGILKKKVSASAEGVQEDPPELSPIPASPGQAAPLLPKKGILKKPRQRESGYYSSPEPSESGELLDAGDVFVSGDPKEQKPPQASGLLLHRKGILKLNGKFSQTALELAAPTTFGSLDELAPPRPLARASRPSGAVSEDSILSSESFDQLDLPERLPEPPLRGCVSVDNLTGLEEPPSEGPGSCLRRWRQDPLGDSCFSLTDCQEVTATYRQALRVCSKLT

[5] = biological target: Putative heat shock protein HSP 90-beta 2 (Homo sapiens, UniProt Q58FF8)
[6] = biological target: Inosine-5'-monophosphate dehydrogenase 2 (Homo sapiens, UniProt P12268)
Deoxycytidine kinase = Deoxycytidine kinase (Homo sapiens, UniProt P27707)
[7] = biological target: TRAF2 and NCK-interacting protein kinase (Homo sapiens, UniProt Q9UKE5)
[8] = biological target: Receptor-interacting serine/threonine-protein kinase 2 (Homo sapiens, UniProt O43353)
[9] = biological target: Casein kinase I isoform gamma-1 (Homo sapiens, UniProt Q9HCP0)
[10] = biological target: Tyrosine-protein kinase ABL2 (Homo sapiens, UniProt P42684)
[11] = biological target: Ribosomal protein S6 kinase alpha-4 (Homo sapiens, UniProt O75676)
Activated CDC42 kinase 1 = Activated CDC42 kinase 1 (Homo sapiens, UniProt Q07912)
[12] = biological target: Protein kinase C theta type (Homo sapiens, UniProt Q04759)
[13] = biological target: Casein kinase I isoform delta (Homo sapiens, UniProt P48730)
[14] = biological target: Non-receptor tyrosine-protein kinase TYK2 (Homo sapiens, UniProt P29597)
[15] = biological target: Fibroblast growth factor receptor 1 (Homo sapiens, UniProt P11362)
[16] = biological target: Cyclin-dependent kinase 7 (Homo sapiens, UniProt P50613)
[17] = biological target: Mitogen-activated protein kinase kinase kinase kinase 5 (Homo sapiens, UniProt Q9Y4K4)

Sequence of Non-receptor tyrosine-protein kinase TYK2 (P29597 whole entry): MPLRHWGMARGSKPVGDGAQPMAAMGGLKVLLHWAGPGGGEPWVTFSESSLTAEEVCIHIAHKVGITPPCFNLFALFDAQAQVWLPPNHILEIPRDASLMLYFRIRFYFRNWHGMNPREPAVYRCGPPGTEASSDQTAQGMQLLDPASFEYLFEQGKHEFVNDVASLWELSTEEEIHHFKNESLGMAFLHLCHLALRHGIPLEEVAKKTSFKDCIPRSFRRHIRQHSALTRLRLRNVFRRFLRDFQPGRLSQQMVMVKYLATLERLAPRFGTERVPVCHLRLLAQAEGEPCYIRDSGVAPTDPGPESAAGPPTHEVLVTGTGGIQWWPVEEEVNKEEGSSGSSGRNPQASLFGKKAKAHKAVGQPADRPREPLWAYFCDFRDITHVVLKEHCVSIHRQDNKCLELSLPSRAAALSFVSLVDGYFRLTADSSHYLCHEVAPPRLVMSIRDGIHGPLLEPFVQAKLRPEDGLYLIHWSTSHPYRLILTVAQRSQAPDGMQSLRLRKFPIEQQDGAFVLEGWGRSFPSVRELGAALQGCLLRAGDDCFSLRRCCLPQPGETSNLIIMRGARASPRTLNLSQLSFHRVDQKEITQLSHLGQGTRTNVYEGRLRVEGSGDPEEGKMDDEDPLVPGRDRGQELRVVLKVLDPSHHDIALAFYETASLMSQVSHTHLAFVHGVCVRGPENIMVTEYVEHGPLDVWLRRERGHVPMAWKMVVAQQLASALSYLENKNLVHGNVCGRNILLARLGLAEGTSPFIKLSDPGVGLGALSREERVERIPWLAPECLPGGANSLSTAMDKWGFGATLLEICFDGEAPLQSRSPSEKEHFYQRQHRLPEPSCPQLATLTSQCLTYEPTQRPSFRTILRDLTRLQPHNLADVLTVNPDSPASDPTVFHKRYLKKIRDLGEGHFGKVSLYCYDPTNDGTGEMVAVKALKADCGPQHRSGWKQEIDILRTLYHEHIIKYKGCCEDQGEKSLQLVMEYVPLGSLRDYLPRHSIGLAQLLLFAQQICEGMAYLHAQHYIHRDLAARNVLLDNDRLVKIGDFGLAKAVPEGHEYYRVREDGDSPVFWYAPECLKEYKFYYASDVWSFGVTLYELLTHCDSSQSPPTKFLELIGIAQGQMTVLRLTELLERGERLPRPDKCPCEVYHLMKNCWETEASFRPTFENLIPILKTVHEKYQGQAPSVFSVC
Sequence of TRAF2 and NCK-interacting protein kinase (Q9UKE5 whole entry): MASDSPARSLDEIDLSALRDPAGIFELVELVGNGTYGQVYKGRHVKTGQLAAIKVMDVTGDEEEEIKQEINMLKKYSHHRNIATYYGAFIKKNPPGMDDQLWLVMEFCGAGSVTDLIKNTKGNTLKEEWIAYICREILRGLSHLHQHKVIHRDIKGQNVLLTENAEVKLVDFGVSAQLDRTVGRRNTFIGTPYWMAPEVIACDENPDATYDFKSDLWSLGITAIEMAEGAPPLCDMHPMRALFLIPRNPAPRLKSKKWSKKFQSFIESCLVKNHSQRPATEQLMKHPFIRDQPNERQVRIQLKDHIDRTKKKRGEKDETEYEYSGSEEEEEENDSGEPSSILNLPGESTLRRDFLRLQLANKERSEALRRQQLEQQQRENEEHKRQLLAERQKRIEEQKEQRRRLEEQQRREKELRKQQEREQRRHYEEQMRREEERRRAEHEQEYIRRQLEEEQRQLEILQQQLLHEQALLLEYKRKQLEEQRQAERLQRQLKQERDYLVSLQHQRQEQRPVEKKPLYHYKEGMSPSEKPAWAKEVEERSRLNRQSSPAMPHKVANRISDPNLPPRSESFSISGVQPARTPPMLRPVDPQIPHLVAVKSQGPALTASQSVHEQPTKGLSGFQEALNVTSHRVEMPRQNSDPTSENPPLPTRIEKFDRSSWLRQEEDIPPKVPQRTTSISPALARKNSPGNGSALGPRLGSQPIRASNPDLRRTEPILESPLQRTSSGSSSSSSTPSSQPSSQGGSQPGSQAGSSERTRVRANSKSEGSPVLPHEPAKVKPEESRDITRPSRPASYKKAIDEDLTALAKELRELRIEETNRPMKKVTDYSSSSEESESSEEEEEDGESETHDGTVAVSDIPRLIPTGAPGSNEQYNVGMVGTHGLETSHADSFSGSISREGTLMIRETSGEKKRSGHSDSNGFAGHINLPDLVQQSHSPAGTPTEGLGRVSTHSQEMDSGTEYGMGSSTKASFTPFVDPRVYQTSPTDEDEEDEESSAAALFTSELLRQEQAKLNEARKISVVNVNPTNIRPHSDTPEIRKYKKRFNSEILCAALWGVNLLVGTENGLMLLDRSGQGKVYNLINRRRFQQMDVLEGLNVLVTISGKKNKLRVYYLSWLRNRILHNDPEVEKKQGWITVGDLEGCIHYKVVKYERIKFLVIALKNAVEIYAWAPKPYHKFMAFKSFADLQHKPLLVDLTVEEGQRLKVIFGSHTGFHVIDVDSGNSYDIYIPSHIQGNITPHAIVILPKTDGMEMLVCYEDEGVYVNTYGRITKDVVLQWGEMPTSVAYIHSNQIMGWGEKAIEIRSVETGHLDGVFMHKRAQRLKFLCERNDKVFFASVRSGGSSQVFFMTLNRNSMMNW
Sequence of Casein kinase I isoform delta (P48730 whole entry, canonical isoform): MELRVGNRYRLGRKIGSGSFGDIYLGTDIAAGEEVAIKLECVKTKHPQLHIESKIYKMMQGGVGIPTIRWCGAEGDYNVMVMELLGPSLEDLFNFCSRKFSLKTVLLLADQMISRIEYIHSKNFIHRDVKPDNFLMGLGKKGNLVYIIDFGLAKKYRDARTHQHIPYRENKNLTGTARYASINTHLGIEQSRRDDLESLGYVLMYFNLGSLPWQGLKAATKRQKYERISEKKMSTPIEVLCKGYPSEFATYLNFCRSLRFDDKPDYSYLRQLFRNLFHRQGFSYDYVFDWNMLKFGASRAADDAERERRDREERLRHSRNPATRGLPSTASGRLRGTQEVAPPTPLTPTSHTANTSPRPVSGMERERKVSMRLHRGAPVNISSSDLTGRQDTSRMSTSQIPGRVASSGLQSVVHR
Sequence of Putative heat shock protein HSP 90-beta 2 (Q58FF8 whole entry): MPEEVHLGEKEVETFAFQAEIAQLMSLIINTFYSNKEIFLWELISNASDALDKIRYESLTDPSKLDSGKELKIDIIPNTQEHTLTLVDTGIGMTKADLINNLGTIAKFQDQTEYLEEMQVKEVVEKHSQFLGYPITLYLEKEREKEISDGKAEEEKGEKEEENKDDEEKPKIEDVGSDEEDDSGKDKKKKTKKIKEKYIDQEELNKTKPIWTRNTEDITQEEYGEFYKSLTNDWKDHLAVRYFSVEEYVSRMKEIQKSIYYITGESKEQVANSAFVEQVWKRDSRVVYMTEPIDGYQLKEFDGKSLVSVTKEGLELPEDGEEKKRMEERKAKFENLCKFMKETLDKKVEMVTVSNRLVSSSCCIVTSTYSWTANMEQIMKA
Sequence of Casein kinase I isoform gamma-1 (Q9HCP0 whole entry, canonical isoform): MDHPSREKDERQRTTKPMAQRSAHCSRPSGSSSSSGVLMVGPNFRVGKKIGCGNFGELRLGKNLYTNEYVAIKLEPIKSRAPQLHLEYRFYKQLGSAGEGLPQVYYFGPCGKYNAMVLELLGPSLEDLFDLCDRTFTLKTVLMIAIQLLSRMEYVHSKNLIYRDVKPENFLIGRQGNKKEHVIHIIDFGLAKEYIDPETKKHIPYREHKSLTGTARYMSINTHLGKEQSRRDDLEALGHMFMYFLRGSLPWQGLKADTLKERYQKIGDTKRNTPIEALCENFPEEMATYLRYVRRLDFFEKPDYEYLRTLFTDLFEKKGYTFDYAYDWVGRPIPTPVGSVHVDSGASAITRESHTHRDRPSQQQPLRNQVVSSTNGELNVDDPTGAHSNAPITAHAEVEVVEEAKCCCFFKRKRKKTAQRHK
Sequence of Receptor-interacting serine/threonine-protein kinase 2 (O43353 whole entry, canonical isoform): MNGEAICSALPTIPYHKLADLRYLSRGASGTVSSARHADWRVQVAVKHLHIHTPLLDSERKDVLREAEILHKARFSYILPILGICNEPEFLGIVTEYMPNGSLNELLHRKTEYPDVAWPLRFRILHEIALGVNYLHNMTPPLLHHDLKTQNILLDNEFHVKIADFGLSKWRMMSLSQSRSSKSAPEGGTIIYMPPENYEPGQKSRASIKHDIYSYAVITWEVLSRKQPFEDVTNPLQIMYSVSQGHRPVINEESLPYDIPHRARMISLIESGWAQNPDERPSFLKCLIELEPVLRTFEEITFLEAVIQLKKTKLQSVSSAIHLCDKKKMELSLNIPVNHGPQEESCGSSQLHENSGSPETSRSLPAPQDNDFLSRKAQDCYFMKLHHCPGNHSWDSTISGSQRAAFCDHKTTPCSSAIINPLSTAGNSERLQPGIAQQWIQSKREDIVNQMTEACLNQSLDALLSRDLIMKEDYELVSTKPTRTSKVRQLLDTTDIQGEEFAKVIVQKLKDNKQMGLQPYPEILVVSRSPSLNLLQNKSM
Sequence of Cyclin-dependent kinase 7 (P50613 whole entry): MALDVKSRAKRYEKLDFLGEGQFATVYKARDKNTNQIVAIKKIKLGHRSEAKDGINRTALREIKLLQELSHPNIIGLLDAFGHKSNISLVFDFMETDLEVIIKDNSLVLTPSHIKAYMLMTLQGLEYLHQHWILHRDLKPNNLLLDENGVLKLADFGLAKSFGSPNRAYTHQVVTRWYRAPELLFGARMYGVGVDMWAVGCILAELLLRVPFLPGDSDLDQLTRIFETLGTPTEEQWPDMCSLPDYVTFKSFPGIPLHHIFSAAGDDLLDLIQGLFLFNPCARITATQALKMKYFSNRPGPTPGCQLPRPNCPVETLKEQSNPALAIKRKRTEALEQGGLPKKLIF
Sequence of Deoxycytidine kinase (P27707 whole entry): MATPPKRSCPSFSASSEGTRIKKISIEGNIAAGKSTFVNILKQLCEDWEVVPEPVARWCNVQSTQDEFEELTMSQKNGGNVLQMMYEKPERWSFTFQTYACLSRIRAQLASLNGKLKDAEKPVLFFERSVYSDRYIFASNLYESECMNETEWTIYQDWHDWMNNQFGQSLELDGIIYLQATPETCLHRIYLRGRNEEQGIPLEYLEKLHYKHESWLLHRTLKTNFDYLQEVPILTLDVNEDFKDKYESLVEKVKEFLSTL

Kd [1]	Kd [3]	Kd [4]	Kd [5]	Kd [6]	Kd (Deoxycytidine kinase)	Kd [7]	Kd [8]	Kd [9]	Kd [10]	Kd [11]	Kd (Activated CDC42 kinase 1)	Kd [12]	Kd [14]	Kd [16]	Kd [17]	SMILES	Kd [2]	Kd [13]	Kd [15]
> 30 µM (inactive)	> 30 µM (inactive)	> 30 µM (inactive)	> 30 µM (inactive)	> 30 µM (inactive)	> 30 µM (inactive)	> 30 µM (inactive)	> 30 µM (inactive)									COc1cc(Nc2ncc3c(n2)-c2ccc(Cl)cc2C(c2c(F)cccc2OC)=NC3)ccc1C(=O)O [ALISERTIB]	> 30 µM (inactive)		
	> 30 µM (inactive)		> 30 µM (inactive)	> 30 µM (inactive)	> 30 µM (inactive)											CNC(=O)c1ccccc1Sc1ccc2c(/C=C/c3ccccn3)n[nH]c2c1 [AXITINIB]			
> 30 µM (inactive)		> 30 µM (inactive)	> 30 µM (inactive)	> 30 µM (inactive)	> 30 µM (inactive)	> 30 µM (inactive)	> 30 µM (inactive)	> 30 µM (inactive)	> 30 µM (inactive)	> 30 µM (inactive)	> 30 µM (inactive)	> 30 µM (inactive)	> 30 µM (inactive)	> 30 µM (inactive)	> 30 µM (inactive)	Cc1cc(C(=O)NOCCO)c(Nc2ccc(I)cc2F)n(C)c1=O [AZD-8330]	> 30 µM (inactive)	> 30 µM (inactive)	> 30 µM (inactive)
> 30 µM (inactive)	> 30 µM (inactive)	> 30 µM (inactive)	> 30 µM (inactive)	> 30 µM (inactive)	> 30 µM (inactive)	> 30 µM (inactive)	> 30 µM (inactive)	> 30 µM (inactive)	> 30 µM (inactive)	> 30 µM (inactive)	> 30 µM (inactive)	> 30 µM (inactive)	> 30 µM (inactive)	> 30 µM (inactive)	> 30 µM (inactive)	Cc1nc2cc(-n3ncc(C(=O)c4cc5ccccc5[nH]4)c3N)ccc2[nH]1 [FGFR INHIBITOR DEBIO 1347]	> 30 µM (inactive)	> 30 µM (inactive)	
	> 30 µM (inactive)		> 30 µM (inactive)	> 30 µM (inactive)	> 30 µM (inactive)											C[C@@H](Oc1cc(-n2cnc3ccc(CN4CCN(C)CC4)cc32)sc1C(N)=O)c1ccccc1C(F)(F)F [GSK-461364]			
> 30 µM (inactive)		> 30 µM (inactive)	> 30 µM (inactive)	> 30 µM (inactive)	2.16 µM (active)	> 30 µM (inactive)	0.611 µM (active)	> 30 µM (inactive)	> 30 µM (inactive)	> 30 µM (inactive)	> 30 µM (inactive)	> 30 µM (inactive)		> 30 µM (inactive)	> 30 µM (inactive)	CCn1cc(-c2ccnc3[nH]c(-c4cccc(CN(C)C)c4)cc23)c(-c2ccc(NC(=O)N(C)C)cc2)n1 [GSK-1070916]	> 30 µM (inactive)		
> 30 µM (inactive)			> 30 µM (inactive)	> 30 µM (inactive)	> 30 µM (inactive)	0.012 µM	> 30 µM (inactive)		> 30 µM (inactive)	1.39 µM (active)						Cc1[nH]c(/C=C2\C(=O)Nc3ccccc32)c(C)c1CCC(=O)O [ORANTINIB]	> 30 µM (inactive)		
> 30 µM (inactive)	> 30 µM (inactive)	> 30 µM (inactive)	> 30 µM (inactive)	> 30 µM (inactive)	> 30 µM (inactive)	> 30 µM (inactive)	0.958 µM (active)		> 30 µM (inactive)							NC(=O)c1c(OCc2c(F)cc(Br)cc2F)nsc1NC(=O)NCCCCN1CCCC1 [OSI-632]	> 30 µM (inactive)		
> 30 µM (inactive)	> 30 µM (inactive)	> 30 µM (inactive)	> 30 µM (inactive)		> 30 µM (inactive)	> 30 µM (inactive)	> 30 µM (inactive)	> 30 µM (inactive)	0.939 µM (active)		> 30 µM (inactive)	0.085 µM (active)	> 30 µM (inactive)	0.003 µM (active)	> 30 µM (inactive)	Cc1nc(Nc2n[nH]c3c2CN(C(=O)N[C@H](CN(C)C)c2ccccc2)C3(C)C)c2sccc2n1 [PF-03758309]	> 30 µM (inactive)	> 30 µM (inactive)	0.208 µM (active)
> 30 µM (inactive)	> 30 µM (inactive)	0.024 µM (active)	> 30 µM (inactive)		> 30 µM (inactive)	0.746 µM (active)	> 30 µM (inactive)		> 30 µM (inactive)	0.156 µM (active)						CC(=O)NCC(=O)N1[C@@H]2CC[C@H]1c1ccc(Nc3ncc(C(F)(F)F)c(NC4CCC4)n3)cc12 [PF-03814735]	> 30 µM (inactive)		
	> 30 µM (inactive)		> 30 µM (inactive)	> 30 µM (inactive)	> 30 µM (inactive)											O=C(NOCCO)c1cc(CN2OCCCC2=O)c(F)c(F)c1Nc1ccc(I)cc1F [RO-4987655]			
	> 30 µM (inactive)		> 30 µM (inactive)	> 30 µM (inactive)	> 30 µM (inactive)											N#CC[C@H](C1CCCC1)n1cc(-c2ncnc3[nH]ccc23)cn1 [RUXOLITINIB]			

SMILES	Kd [1]	Kd [3]	Kd [4]	Kd [5]	Kd [6]	Kd (Deoxycytidine kinase)	Kd [7]	Kd [8]	Kd [9]	Kd [10]	Kd [11]	Kd (Activated CDC42 kinase 1)	Kd [12]	Kd [14]	Kd [16]	Kd [17]	Kd [2]	Kd [13]	Kd [15]
CC(C)(C)c1nc(-c2cccc(NS(=O)(=O)c3c(F)cccc3F)c2F)c(-c2ccnc(N)n2)s1 [DABRAFENIB]	0.851 µM (active)	> 30 µM (inactive)	> 30 µM (inactive)	> 30 µM (inactive)	> 30 µM (inactive)	> 30 µM (inactive)	> 30 µM (inactive)	0.106 µM (active)		0.305 µM (active)						> 30 µM (inactive)	> 30 µM (inactive)	> 30 µM (inactive)	> 30 µM (inactive)
Cn1cc(C2=C(c3cn(C4CCN(Cc5ccccn5)CC4)c4ccccc34)C(=O)NC2=O)c2ccccc21 [ENZASTAURIN]		> 30 µM (inactive)		> 30 µM (inactive)	> 30 µM (inactive)	> 30 µM (inactive)													
O=C(Nc1cc(C(F)(F)F)cc(C(F)(F)F)c1)c1cc(Cl)ccc1O [IMD-0354]	> 30 µM (inactive)	> 30 µM (inactive)	> 30 µM (inactive)	> 30 µM (inactive)	> 30 µM (inactive)	> 30 µM (inactive)	> 30 µM (inactive)	> 30 µM (inactive)	> 30 µM (inactive)	> 30 µM (inactive)	> 30 µM (inactive)	> 30 µM (inactive)	> 30 µM (inactive)	> 30 µM (inactive)	> 30 µM (inactive)	1.46 µM (active)	> 30 µM (inactive)	> 30 µM (inactive)	> 30 µM (inactive)
CCCCCCCCCCCCCCCCCCOP(=O)([O-])OC1CC[N+](C)(C)CC1 [PERIFOSINE]	> 30 µM (inactive)	> 30 µM (inactive)	> 30 µM (inactive)	> 30 µM (inactive)	> 30 µM (inactive)	> 30 µM (inactive)	> 30 µM (inactive)	> 30 µM (inactive)	> 30 µM (inactive)	> 30 µM (inactive)	> 30 µM (inactive)	> 30 µM (inactive)	> 30 µM (inactive)	> 30 µM (inactive)	> 30 µM (inactive)	> 30 µM (inactive)	> 30 µM (inactive)	> 30 µM (inactive)	> 30 µM (inactive)
